Experimental data as given in publication PMC6681697, “One-Step ^18F-Labeling and Preclinical Evaluation of Prostate-Specific Membrane Antigen Trifluoroborate Probes for Cancer Imaging” (Journal of Nuclear Medicine, 2019).
Like-named read-outs stand apart in the source and are kept apart here.

How the values were obtained:
[1] = Distribution coefficient (LogD7.4), shake flask method; assay type: physicochemical; settings: n-octanol / phosphate buffer 0.1 M pH 7.4; n = 3
Procedure: LogD7.4 values were measured using the shake flask method. Briefly, an aliquot of ^18F-labeled tracer was added to a vial containing 2.5 mL of n-octanol and 2.5 mL of phosphate buffer (0.1 M, pH 7.4). The mixture was vortexed for 2 min and then centrifuged at 3,000g for 10 min. A sample of the n-octanol (0.1 mL) and buffer (0.1 mL) layers was counted using a γ-counter. Values of LogD7.4 were calculated using the following equation: LogD7.4 = log10 [(counts in n-octanol phase)/(counts in buffer phase)].

[2] = system: LNCaP xenografts; test: Ex vivo biodistribution and blocking studies in mice bearing LNCaP xenografts; settings: for tumor uptake compared with ^18F-DCFPyL: 1-way ANOVA, Dunnett test; for tumor uptake: LNCaP tumor
Procedure: Imaging and biodistribution experiments were performed using NODSCID IL2RγKO male mice. All experiments were conducted according to the guidelines established by the Canadian Council on Animal Care and approved by the Animal Ethics Committee of the University of British Columbia. Mice were anesthetized by inhalation with 2% isoflurane in oxygen and implanted subcutaneously with 1 × 10^7 LNCaP cells behind the left shoulder. The mice were imaged or used in biodistribution studies once the tumor reached 5–8 mm in diameter (5–6 wk).
For biodistribution and blocking studies, the mice were injected with 1–3 MBq of radiotracer. At 60 min, the mice were anesthetized with 2% isoflurane inhalation and euthanized by CO2 inhalation. Blood was withdrawn by cardiac puncture, and the organs and tissues of interest were collected, weighed, and counted using an automatic γ-counter (PerkinElmer). Uptake values were expressed as the percentage of the injected dose per gram of tissue (%ID/g).
A standard 1-way ANOVA was performed to determine whether statistically significant differences in tumor uptake occurred between radiotracers. Each radiotracer was compared with ^18F-DCFPyL using the Dunnett test (a many-to-one t test comparison). This analysis was also performed for kidney and blood activity and for tumor-to-blood and tumor-to-muscle ratios. Reported P values were adjusted for multiple comparisons. The analysis was performed using Prism 8 (GraphPad). […]
Statistical analyses were performed using GradPad prism 7. Multiple t tests were performed to compare biodistribution in unblocked and blocked mice, multiple comparisons were corrected using the Holm-Sidak method. The difference was considered statistically significant when p value was < 0.05.
Supplemental Table 1 – Complete biodistribution study for compounds [18F]1–3 […]
Tissue 1h 1h blocked 1h 1h blocked 1h 1h blocked
(%ID/g) n = 8 n = 4 n = 6 n = 4 n = 8 n = 5 […]
(1 picture or pasted object on this page, not shown here)

[3] = molecular target: T1, PSMA (Homo sapiens, UniProt Q04609); test: In vitro competition binding assay on LNCaP cells with ^18F-DCFPyL as radioligand
T1 construct: because it expresses PSMA endogenously and is commonly used to evaluate PSMA-targeting radiotracers; endogenous in cells; host or cells: LNCaP cells
Procedure: LNCaP cells were plated onto a 24-well poly-D-lysine coated plate for 48 h (400,000/well). […] Nonspecific binding was determined in the presence of 10 μM unlabeled DCFPyL. The assay mixtures were incubated for 1 h at 37°C with gentle agitation followed by 2 washes with cold HEPES buffered saline. A trypsin solution (0.25%, 400 μL) was then added to each well to harvest the cells. Radioactivity was measured by γ-counting, and Ki values were calculated using the “1 site—fit Ki” built-in model in Prism 7 (GraphPad).

[4] = 1 h blocked (coinjection of DCFPyL 0.5 mg)

T1 sequence (Q04609 whole entry): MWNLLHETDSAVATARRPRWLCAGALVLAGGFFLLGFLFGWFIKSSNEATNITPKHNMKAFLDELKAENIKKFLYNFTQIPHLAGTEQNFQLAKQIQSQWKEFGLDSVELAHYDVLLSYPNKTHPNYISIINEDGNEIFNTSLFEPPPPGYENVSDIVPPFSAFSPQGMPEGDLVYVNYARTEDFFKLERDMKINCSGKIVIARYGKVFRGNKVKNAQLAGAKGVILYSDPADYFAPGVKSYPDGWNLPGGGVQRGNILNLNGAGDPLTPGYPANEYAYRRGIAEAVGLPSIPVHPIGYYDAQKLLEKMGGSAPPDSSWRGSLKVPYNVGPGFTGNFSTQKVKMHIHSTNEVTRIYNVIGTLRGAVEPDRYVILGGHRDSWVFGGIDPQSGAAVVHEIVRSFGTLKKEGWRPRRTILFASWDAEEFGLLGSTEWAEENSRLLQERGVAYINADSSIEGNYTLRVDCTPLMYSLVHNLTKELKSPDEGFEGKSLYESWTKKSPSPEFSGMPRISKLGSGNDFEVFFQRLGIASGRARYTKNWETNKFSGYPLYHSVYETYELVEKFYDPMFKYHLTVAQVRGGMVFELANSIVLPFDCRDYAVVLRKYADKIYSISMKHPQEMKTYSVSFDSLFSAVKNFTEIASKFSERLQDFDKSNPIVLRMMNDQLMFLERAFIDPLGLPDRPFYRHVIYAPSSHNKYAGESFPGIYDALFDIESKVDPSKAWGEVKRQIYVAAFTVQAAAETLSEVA

SMILES: C[N+](C)(Cc1ccc(C(=O)NCCCC[C@H](NC(=O)N[C@@H](CCC(=O)O)C(=O)O)C(=O)O)cc1)C[B-](F)(F)F [^18F-1]
- LogD7.4 [1]: −3.43 ± 0.35
- T/B (tumor-to-blood ratio) ([2]; 1 h after injection, unblocked): 10.82 ± 1.64
- T/K (tumor-to-kidney ratio) ([2]; 1 h after injection, unblocked): 0.07 ± 0.06
- T/M (tumor-to-muscle ratio) ([2]; 1 h after injection, unblocked): 23.43 ± 3.71
- adrenal uptake ([2]; 1 h after injection, unblocked): 4.77 ± 1.75 %ID/g
- blood uptake ([2]; 1 h after injection, unblocked): 0.57 ± 0.15 %ID/g
- bone uptake ([2]; 1 h after injection, unblocked): 0.36 ± 0.02 %ID/g
- brain uptake ([2]; 1 h after injection, unblocked): 0.04 ± 0.01 %ID/g
- fat uptake ([2]; 1 h after injection, unblocked): 0.99 ± 0.39 %ID/g
- heart uptake ([2]; 1 h after injection, unblocked): 0.30 ± 0.06 %ID/g
- intestine uptake ([2]; 1 h after injection, unblocked): 0.54 ± 0.11 %ID/g
- kidney uptake ([2]; 1 h after injection, unblocked): 114.00 ± 41.30 %ID/g
- liver uptake ([2]; 1 h after injection, unblocked): 2.90 ± 0.56 %ID/g
- lung uptake ([2]; 1 h after injection, unblocked): 1.37 ± 0.36 %ID/g
- muscle uptake ([2]; 1 h after injection, unblocked): 0.26 ± 0.08 %ID/g
- pancreas uptake ([2]; 1 h after injection, unblocked): 0.55 ± 0.16 %ID/g
- spleen uptake ([2]; 1 h after injection, unblocked): 2.67 ± 0.98 %ID/g
- stomach uptake ([2]; 1 h after injection, unblocked): 0.12 ± 0.05 %ID/g
- testes uptake ([2]; 1 h after injection, unblocked): 0.62 ± 0.15 %ID/g
- tumor uptake compared with ^18F-DCFPyL ([2]; 1 h after injection): lower tumor uptake than ^18F-DCFPyL
- T/B (tumor-to-blood ratio) [2, 4]: 0.91 ± 0.44
- T/K (tumor-to-kidney ratio) [2, 4]: 0.10 ± 0.03
- T/M (tumor-to-muscle ratio) [2, 4]: 2.63 ± 1.10
- adrenal uptake [2, 4]: 0.35 ± 0.14 %ID/g
- blood uptake [2, 4]: 0.45 ± 0.27 %ID/g
- bone uptake [2, 4]: 0.30 ± 0.07 %ID/g
- brain uptake [2, 4]: 0.03 ± 0.01 %ID/g
- fat uptake [2, 4]: 0.14 ± 0.08 %ID/g
- heart uptake [2, 4]: 0.15 ± 0.04 %ID/g
- intestine uptake [2, 4]: 0.57 ± 0.23 %ID/g
- kidney uptake [2, 4]: 3.54 ± 0.83 %ID/g
- liver uptake [2, 4]: 3.00 ± 0.53 %ID/g
- lung uptake [2, 4]: 0.25 ± 0.06 %ID/g
- muscle uptake [2, 4]: 0.13 ± 0.03 %ID/g
- pancreas uptake [2, 4]: 0.11 ± 0.03 %ID/g
- spleen uptake [2, 4]: 0.13 ± 0.03 %ID/g
- stomach uptake [2, 4]: 0.11 ± 0.08 %ID/g
- testes uptake [2, 4]: 0.10 ± 0.02 %ID/g
- tumor uptake ([2]; 1 h after injection, unblocked): 6.0 ± 1.2 %ID/g
- tumor uptake ([2]; 1 h after injection, unblocked, listed as [18F]1): 6.04 ± 1.24 %ID/g
- tumor uptake [2, 4]: 0.33 ± 0.07 %ID/g
- Ki ([3]; LNCaP cells, 0.1 nM ^18F-DCFPyL radioligand, 1 h at 37°C, n = 3): 14.4 ± 2.7 nM

SMILES: C[N+](C)(Cc1cn(Cc2ccc(C(=O)NCCCC[C@H](NC(=O)N[C@@H](CCC(=O)O)C(=O)O)C(=O)O)cc2)nn1)C[B-](F)(F)F [^18F-2]
- logD at 2 min [1]: -4.26 ± 0.04
- T/B (tumor-to-blood ratio) ([2]; 1 h after injection, unblocked): 15.95 ± 1.37
- T/K (tumor-to-kidney ratio) ([2]; 1 h after injection, unblocked): 0.12 ± 0.04
- T/M (tumor-to-muscle ratio) ([2]; 1 h after injection, unblocked): 37.30 ± 9.53
- adrenal uptake ([2]; 1 h after injection, unblocked): 4.65 ± 1.75 %ID/g
- blood uptake ([2]; 1 h after injection, unblocked): 0.52 ± 0.06 %ID/g
- bone uptake ([2]; 1 h after injection, unblocked): 0.44 ± 0.09 %ID/g
- brain uptake ([2]; 1 h after injection, unblocked): 0.04 ± 0.01 %ID/g
- fat uptake ([2]; 1 h after injection, unblocked): 0.73 ± 0.26 %ID/g
- heart uptake ([2]; 1 h after injection, unblocked): 0.33 ± 0.08 %ID/g
- intestine uptake ([2]; 1 h after injection, unblocked): 0.33 ± 0.05 %ID/g
- kidney uptake ([2]; 1 h after injection, unblocked): 71.70 ± 18.0 %ID/g
- liver uptake ([2]; 1 h after injection, unblocked): 1.69 ± 0.19 %ID/g
- lung uptake ([2]; 1 h after injection, unblocked): 1.39 ± 0.17 %ID/g
- muscle uptake ([2]; 1 h after injection, unblocked): 0.23 ± 0.04 %ID/g
- pancreas uptake ([2]; 1 h after injection, unblocked): 0.33 ± 0.05 %ID/g
- spleen uptake ([2]; 1 h after injection, unblocked): 5.01 ± 0.64 %ID/g
- stomach uptake ([2]; 1 h after injection, unblocked): 0.10 ± 0.03 %ID/g
- testes uptake ([2]; 1 h after injection, unblocked): 0.67 ± 0.17 %ID/g
- tumor uptake compared with ^18F-DCFPyL ([2]; 1 h after injection): No statistically significant differences
- T/B (tumor-to-blood ratio) [2, 4]: 0.77 ± 0.48
- T/K (tumor-to-kidney ratio) [2, 4]: 0.13 ± 0.02
- T/M (tumor-to-muscle ratio) [2, 4]: 2.66 ± 1.60
- adrenal uptake [2, 4]: 0.20 ± 0.05 %ID/g
- blood uptake [2, 4]: 0.46 ± 0.24 %ID/g
- bone uptake [2, 4]: 0.30 ± 0.06 %ID/g
- brain uptake [2, 4]: 0.02 ± 0.00 %ID/g
- fat uptake [2, 4]: 0.06 ± 0.01 %ID/g
- heart uptake [2, 4]: 0.09 ± 0.02 %ID/g
- intestine uptake [2, 4]: 0.31 ± 0.02 %ID/g
- kidney uptake [2, 4]: 2.11 ± 0.19 %ID/g
- liver uptake [2, 4]: 1.76 ± 0.17 %ID/g
- lung uptake [2, 4]: 0.22 ± 0.03 %ID/g
- muscle uptake [2, 4]: 0.12 ± 0.05 %ID/g
- pancreas uptake [2, 4]: 0.06 ± 0.01 %ID/g
- spleen uptake [2, 4]: 0.09 ± 0.03 %ID/g
- stomach uptake [2, 4]: 0.06 ± 0.02 %ID/g
- testes uptake [2, 4]: 0.08 ± 0.02 %ID/g
- tumor uptake ([2]; 1 h after injection, unblocked, listed as 2): 8.3 ± 1.3 %ID/g
- tumor uptake ([2]; 1 h after injection, unblocked, listed as [18F]2): 8.28 ± 1.25 %ID/g
- tumor uptake [2, 4]: 0.27 ± 0.06 %ID/g
- Ki [3]: 11.8 ± 0.9 nM
